Assay results taken from US8980905B2, “Benzodioxole or benzodioxepine heterocyclic compounds as phosphodiesterase inhibitors” (Leo Pharma A/S, priority 2010, dated 2015).
Where two headings read alike, the source gives them in different places.

Experiments:
[1] = molecular target: Human recombinant PDE4 (Genbank accession no NM-006203) (Homo sapiens (Human), UniProt Q08499); experiment: PDE4 Assay (SPA, cAMP cleavage); format: biochemical
Description: Human recombinant PDE4 (Genbank accession no NM_006203) was incubated for 1 hour, with the test compound at concentrations up to 10 μM, with cAMP (1×10^-5M), and with a low amount (0.021 MBq) of radioactively labelled cAMP. At the end of the incubation, the cleavage of the substrate was evaluated by the binding of the AMP product to SPA beads, which generate chemoluminescence when bound to the radioactive tracer. The AMP product inhibited the binding of the radioactive tracer to the beads, and the luminescent signal was competed.
The results were calculated as the molar concentrations resulting in 50% inhibition of the substrate cleavage compared to controls samples, and are expressed as IC50 (M).

[2] = In vivo pharmacokinetic analyses in rat; details: serum, PO dosing 5 mg/kg, read-out: Serum Cmax of parent compound
Description: One rat is dosed orally (5 mg/kg—dissolved in DMSO/H2O/propylenglycol [1:5:4]) and blood samples are taken from the sublingual venous plexus at 30 min, 1 h, 2 h, 4 h and 6 h. Blood samples are taken in BD Vacutainer SST serum separation tubes, serum is isolated by centrifugation, transferred to micronics tubes and subsequently analysed.
Mass spectrometer (API5000 series) parameters are optimised to analyse for the specific compounds and test injections are performed to confirm the validity of the established generic chromatography method. The generic method is based on fast gradient (2.5 min) analysis on C18 column with mobile phases consisting methanol, ammonium acetate, formic acid and water.
Standards are prepared in rat serum to cover the analytical range 0.1 to 300 ng/ml. Standards, blank serum and study samples are applied to 96 deepwell plate and proteins are precipitated by addition of acetonitrile containing internal standard. Samples are analysed on LC-MS/MS usually overnight. Integration and quantification is performed on ration between analyte and internal standard using Analyst software version 1.5. Pharmacokinetic parameters are calculated using a standardised Excel spreadsheet.

[3] = human recombinant PDE4, 1 hour incubation, cAMP 1x10-5 M, read-out: IC50 (PDE4)

Sequence of Human recombinant PDE4 (Genbank accession no NM-006203) (Q08499 other isoform, or with tags, fused parts or gaps): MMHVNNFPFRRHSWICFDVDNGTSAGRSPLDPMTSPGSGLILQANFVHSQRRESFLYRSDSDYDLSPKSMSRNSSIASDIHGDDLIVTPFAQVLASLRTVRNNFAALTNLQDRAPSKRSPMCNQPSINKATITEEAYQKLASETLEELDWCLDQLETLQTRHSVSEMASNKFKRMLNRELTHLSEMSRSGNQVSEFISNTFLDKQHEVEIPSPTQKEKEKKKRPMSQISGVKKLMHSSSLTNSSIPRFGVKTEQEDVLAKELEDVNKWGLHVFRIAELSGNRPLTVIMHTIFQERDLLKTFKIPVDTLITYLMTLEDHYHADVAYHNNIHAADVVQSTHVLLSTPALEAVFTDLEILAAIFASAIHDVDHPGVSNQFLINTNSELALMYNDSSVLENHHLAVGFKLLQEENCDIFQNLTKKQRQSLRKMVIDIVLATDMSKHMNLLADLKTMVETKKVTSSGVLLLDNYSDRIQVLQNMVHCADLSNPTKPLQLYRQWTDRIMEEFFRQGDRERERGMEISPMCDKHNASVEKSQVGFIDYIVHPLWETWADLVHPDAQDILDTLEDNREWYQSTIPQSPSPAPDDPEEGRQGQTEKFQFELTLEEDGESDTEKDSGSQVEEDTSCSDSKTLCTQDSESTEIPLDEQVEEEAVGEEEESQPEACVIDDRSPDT

IC50 [1, 3]	Cmax [2]	IC50 ([1]; stated in text of example 15, read-out: PDE4 activity)	SMILES
6 nM			O=C(Cc1c(Cl)cncc1Cl)c1ccc(OC(F)F)c2c1OCC1(COC1)CO2 [Compound 101, 2-(3,5-Dichloropyridin-4-yl)-1-{9-difluoromethoxy-spiro[2H-1,5-benzodioxepin-3(4H),3′-oxetane]-6-yl}ethanone]
6 nM			O=C(Cc1c(Cl)cncc1Cl)c1ccc(OC(F)F)c2c1OCC1(CCOCC1)CO2 [Compound 103, 2-(3,5-Dichloropyridin-4-yl)-1-{9-difluoromethoxy-spiro[2H-1,5-benzodioxepin-3(4H),4′-tetrahydropyran]-6-yl}ethanone]
4 nM			O=C(Cc1c(Cl)c[n+]([O-])cc1Cl)c1ccc(OC(F)F)c2c1OCC1(CCOCC1)CO2 [Compound 104, 2-(3,5-Dichloro-1-oxido-pyridin-4-yl)-1-{9-difluoromethoxy-spiro[2H-1,5-benzodioxepin-3(4H),4′-tetrahydropyran]-6-yl}ethanone]
7 nM	< 3 ng/mL		O=C(Cc1c(Cl)cncc1Cl)c1ccc(OC(F)F)c2c1OC1(CCOCC1)O2 [Compound 105, 2-(3,5-Dichloropyridine-4-yl)-1-(7-difluoromethoxy-2′,3′,5′,6′-tetrahydro-spiro[1,3-benzodioxole-2,4′-(4H)-pyran]-4-yl)ethanone]
5 nM	133 ng/mL		O=C(Cc1c(Cl)c[n+]([O-])cc1Cl)c1ccc(OC(F)F)c2c1OC1(CCOCC1)O2 [Compound 106, 2-(3,5-Dichloro-1-oxido-pyridine-4-yl)-1-(7-difluoromethoxy-2′,3′,5′,6′-tetrahydro-spiro[1,3-benzodioxole-2,4′-(4H)-pyran]-4-yl)ethanone]
16 nM			O=C(Cc1c(Cl)c[n+]([O-])cc1Cl)c1ccc(OC(F)F)c2c1OC1(CCS(=O)(=O)CC1)O2 [Compound 108, 2-(3,5-Dichloro-1-oxido-pyridine-4-yl)-1-(7-difluoromethoxy-2′,3′,5′,6′-tetrahydro-spiro[1,3-benzodioxole-2, 4′-(4H)-thiopyran-1′,1′-dioxide]-4-yl)ethanone]
13 nM			O=C(Cc1c(Cl)cncc1Cl)c1ccc(OC(F)F)c2c1OC1(CCS(=O)(=O)CC1)O2 [Compound 109, 2-(3,5-Dichloropyridine-4-yl)-1-(7-difluoromethoxy-2′,3′,5′,6′-tetrahydro-spiro[1,3-benzodioxole-2, 4′-(4H)-thiopyran-1′,1′-dioxide]-4-yl)ethanone]
2 nM			O=C(Nc1c(Cl)cncc1Cl)c1ccc(OC(F)F)c2c1OC1(CCSCC1)O2 [Compound 110, N-(3,5-Dichloro-4-pyridyl)-7-Difluoromethoxy-2′,3′,5′,6′-tetrahydro-spiro[1,3-benzodioxole-2,4′-(4H)-thiopyran]-4-carbamide]
		5000 nM	O=C(Cc1c(Cl)cncc1Cl)c1ccc(O)c2c1OC1(CCOCC1)O2 [Compound 403, 2-(3,5-Dichloropyridine-4-yl)-1-(7-hydroxy-2′,3′,5′,6′-tetrahydro-spiro[1,3-benzodioxole-2,4′-(4H)-pyran]-4-yl)ethanone]

SMILES	IC50 [1, 3]	Cmax [2]	IC50 ([1]; stated in text of example 15, read-out: PDE4 activity)
O=C(Nc1c(Cl)c[n+]([O-])cc1Cl)c1ccc(OC(F)F)c2c1OC1(CCS(=O)(=O)CC1)O2 [Compound 111, N-(3,5-dichloro-1-oxo-4-pyridyl)-7-(difluoromethoxy)-1′,1′-dioxo-spiro[1,3-benzodioxole-2,4′-thiane]-4-carboxamide]	106 nM		
